{"source": "patent US9192619B2", "about": "(Peking University Third Hospital, priority 2010, dated 2015)", "tested_on": "permanent focal cerebral ischemia model (MCAO)", "assay": "Permanent focal cerebral ischemia model by middle cerebral artery occlusion (MCAO), infarction size by TTC staining of brain slices", "assay_type": "in vivo, Sprague Dawley rats", "conditions": "single rats, 12 h ischemia", "protocol": "Experimental conditions: Sprague Dawley rats weighing about 250-300 g with a brain tissue volume of 1.5 mL were used. The subjects were divided into eight groups, and each group had eight rats. […] Efficacy validation: two hours after ECS administration and one hour after intraperitoneal injection, a permanent focal cerebral ischemia model was made by middle cerebral artery occlusion (MCAO). The brains of rats from each group were removed 12 hours after cerebral ischemia. The brain slices were obtained by cutting the brain at every 2 mm (5 slices from each rat). Then the slices were stained with 2,3,5-triphenyl-2H-tetrazolium chloride (TTC) for evaluating the cerebral infarction size and the effectiveness of administration of the drug via ECS.", "note": "Where “and” joins values, the source holds several entries; their conditions need not be identical. Identical values can stand only once."}
{"smiles": "C[N+](C)(C)CCOP(=O)(O)OP(=O)([O-])OC[C@H]1O[C@@H](n2ccc(N)nc2=O)[C@H](O)[C@@H]1O", "note": "[CDPC, citicoline]", "values": [{"measurement": "Infarction percentages", "setting": "CDPC 25 mM via brain ECS (caudate nucleus), 0.2 μL/min, 2 μL, MCAO 2 h after administration", "result": "33.7% and 5.6% and 18.6% and 34.1% and 38.1% and 42% and 24.9% and 22.8%"}, {"measurement": "Infarction percentages", "setting": "CDPC 40 mM via brain ECS, 0.2 μL/min, 2 μL, MCAO 2 h after administration", "result": "2.3% and 6.7% and 2.2% and 2.9% and 6.9% and 3.6% (2×) and 5.3%"}, {"measurement": "Infarction percentages", "setting": "CDPC 50 mM via brain ECS, 0.2 μL/min, 2 μL, MCAO 2 h after administration", "result": "1.3% and 5.7% and 3% and 1.7% and 3.7% and 4.8% and 5% and 7.3%"}, {"measurement": "Infarction percentages", "setting": "CDPC 60 mM via brain ECS, 0.2 μL/min, 2 μL, MCAO 2 h after administration", "result": "2.3% and 3.7% and 3.6% and 1.7% and 6.7% and 8.8% and 3.5% and 4.2%"}, {"measurement": "Infarction percentages", "setting": "CDPC 75 mM via brain ECS, 0.2 μL/min, 2 μL, MCAO 2 h after administration", "result": "31.2% and 35.8% and 4.0% and 37.8% and 16.1% and 29.8%"}, {"measurement": "Infarction percentages", "setting": "CDPC 100 mM via brain ECS, 0.2 μL/min, 2 μL, MCAO 2 h after administration", "result": "29.1% and 35.9% and 20.7% and 8.1% and 38.8% and 20.6% and 11.5% and 41.6%"}, {"measurement": "Infarction percentages", "setting": "CDPC 245 mM via brain ECS, 0.2 μL/min, 2 μL, MCAO 2 h after administration", "result": "24.8% and 51.2% and 14.8% and 20% and 26.7% and 18.1% and 48.3% and 33.4%"}, {"measurement": "Infarction percentages", "setting": "CDPC 1000 mM intraperitoneal, 1 mL (about 4 mL/kg), 1 mL/min, MCAO 1 h after administration", "result": "30.6% and 26.4% and 10.7% and 5.2% and 25.5% and 27.0% and 33.9% and 32.3%"}]}
